Experimental data from ChEMBL document CHEMBL3045757, “Common binding requirements of PPAR-// pan agonists: quantitative structureactivity relationship analysis of indanylacetic acid derivatives carrying 4-thiazolyl-phenoxy tail group” (Med Chem Res, 2012).

Molecular target: T1, Peroxisome proliferator-activated receptor gamma (Homo sapiens, UniProt P37231)
T1 sequence (P37231 whole entry): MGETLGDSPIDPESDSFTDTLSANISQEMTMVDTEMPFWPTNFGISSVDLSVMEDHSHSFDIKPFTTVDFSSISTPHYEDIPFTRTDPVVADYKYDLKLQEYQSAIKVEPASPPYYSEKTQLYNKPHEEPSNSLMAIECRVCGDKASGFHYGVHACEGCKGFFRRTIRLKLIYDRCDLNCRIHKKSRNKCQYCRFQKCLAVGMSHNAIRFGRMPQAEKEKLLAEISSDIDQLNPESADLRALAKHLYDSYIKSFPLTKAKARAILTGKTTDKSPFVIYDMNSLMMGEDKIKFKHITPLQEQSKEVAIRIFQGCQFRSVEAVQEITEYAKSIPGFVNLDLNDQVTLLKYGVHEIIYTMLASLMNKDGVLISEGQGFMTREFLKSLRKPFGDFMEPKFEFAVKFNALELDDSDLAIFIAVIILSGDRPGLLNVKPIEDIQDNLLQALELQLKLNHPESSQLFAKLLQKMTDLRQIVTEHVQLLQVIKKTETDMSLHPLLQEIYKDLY
Assay: Agonist activity at Homo sapiens (human) PPARgamma expressed in mouse 3T3-L1 cells incubated for 2 days followed by compound wash out measured after 4 days by insulin receptor binding assay
Assay type: cell-based

EC50: 178 nM
Compound: CCOc1nc(-c2ccc(OCCCOc3ccc4c(c3)CC[C@H]4CC(=O)O)c(OC)c2)sc1CC
